Assay results published in US9963452B2, “Methods, compounds, and compositions for inhibition of ROS” (AUGUSTA PHARMACEUTICALS INC., priority 2013, dated 2018).

Legend:
Type in all cases: cell-based
[1] = system: HeLa cervical cancer cell line; assay: In-vitro cell survival assay (Alamar blue), HeLa; settings: one day after compound addition
Protocol: (§1) Five tumor-derived cell lines were treated with the ROS inhibitor compounds and cell survival was monitored to determine the cancer prohibition effects of the compounds. The cell lines included HeLa, a cervical cancer cell line, and four glioblastoma cell lines U138, U87, LN18, and U118. The basic protocol for the in-vitro cell survival assay is the same for all five cell lines. In particular, the cells were seeded in 96-well plates at 2-5×10^3 cells/well (cell line dependent) in culture medium. The cells were grown for 2 days before the compounds were dissolved in DMSO and added to final concentrations of 100 uM, 10 uM, or 1 uM (DMSO final concentration 0.5%). The cell culture was then assayed one day after the addition of the compounds. The assay used Alamar blue as a redox-sensitive dye that interrogates mitochondrial fitness of cells, and these assays provided a readout for cell proliferation and viability. The raw values were normalized to an average of several vehicle control wells and are presented as percent decrease in proliferation/viability, which is converted to half maximal effective concentration (EC50) values.

[2] = system: LN18 glioblastoma cell line; assay: In-vitro cell survival assay (Alamar blue), LN18; settings: LN18, one day after compound addition
Protocol: as §1

[3] = system: U87 glioblastoma cell line; assay: In-vitro cell survival assay (Alamar blue), U87; settings: U87, one day after compound addition
Protocol: as §1

[4] = system: U118 glioblastoma cell line; assay: In-vitro cell survival assay (Alamar blue), U118; settings: U118, one day after compound addition
Protocol: as §1

[5] = system: U138 glioblastoma cell line; assay: In-vitro cell survival assay (Alamar blue), U138; settings: U138, one day after compound addition
Protocol: as §1

Row | Structure (SMILES) | EC50 [1] [µM] | EC50 [2] [µM] | EC50 [3] [µM] | EC50 [4] [µM] | EC50 [5] [µM] | EC50 ([1]; Homo sapiens, 24 h) [µM] | EC50 ([2]; Homo sapiens, LN-18, 24 h) [µM] | EC50 ([3]; 24 h) [µM] | EC50 ([4]; 24 h) [µM] | EC50 ([5]; 24 h) [µM]
1 | Cc1cc(C)c(NC(=O)c2cc3ccccc3c(=O)s2)c(-c2cc(C)[nH]n2)c1 [drawing 400] | > 100 | > 100 | > 100 | > 100 | > 100 | – | – | – | – | –
2 | NC(=O)c1c(NC(=O)[C@H]2CC(=O)N(c3ccccc3)C2)sc2c1CCCC2 [drawing 356] | – | – | – | – | – | > 100 | > 100 | > 100 | > 100 | > 100
3 | COc1cccc(Nc2nc(N)c(C(=O)c3c(C)[nH]c4ccccc34)s2)c1 [drawing 384] | – | – | – | – | – | 72 | 10 | 15 | 16 | 19
4 | Cc1cccc(Nc2nccc(Nc3cccc(C(=O)NC4CCN(C)CC4)c3)n2)c1 [drawing 422] | – | – | – | – | – | 25 | 5 | 18 | 60 | 20
5 | COc1ccccc1-c1cc(C(F)F)n2ncc(C(=O)NCc3cccnc3)c2n1 [drawing 361] | – | – | – | – | – | > 100 | 16 | 22 | > 100 | > 100
6 | Cn1c(=O)c2c(nc3n(CCO)c(-c4ccccc4)cn23)n(C)c1=O [drawing 402] | – | – | – | – | – | > 100 | > 100 | > 100 | > 100 | > 100
7 | Nc1ccc(Nc2nccc(Nc3cc(C4CC4)[nH]n3)n2)cc1 [drawing 436] | – | – | – | – | – | 0.4 | 10 | 5 | 30 | 1.9
8 | Cc1cccc(Nc2nccc(Nc3cccc(C(=O)NCc4ccc(F)cc4)c3)n2)c1 [drawing 379] | – | – | – | – | – | 13 | 7 | 13 | 28 | 19
9 | CN(C)CC(C)(C)CNC(=O)c1cccc(Nc2nccc(Nc3ccc4ncsc4c3)n2)c1 [drawing 413] | – | – | – | – | – | 24 | 9 | 32 | 76 | 73
10 | CC1=NNC(=O)/C1=C\c1cn(-c2ccccc2)nc1-c1ccccc1 [drawing 403] | – | – | – | – | – | 20 | 12 | 8 | 7 | 8
11 | COc1ccc(C(F)(F)F)cc1NC(=O)CCn1ccc2ccccc21 [drawing 476] | – | – | – | – | – | > 100 | – | – | 47 | 98
12 | Nc1nc(Nc2ccc(C(=O)N3CCC[C@H]4CCCC[C@H]43)cc2)cc(Nc2ccc3ncsc3c2)n1 | – | – | – | – | – | 58 | 14 | 30 | > 100 | > 100
13 | Cc1cc(C)n(-c2cccc(C(=O)NC[C@H]3Cc4cc(Cl)cc(-c5cnccn5)c4O3)c2)n1 | – | – | – | – | – | 70 | 64 | 94 | 96 | > 100
14 | NC(=O)c1c(NC(=O)Nc2ccccc2)sc2c1CCCC2 [drawing 401] | – | – | – | – | – | 16 | 38 | 80 | 34 | 27
15 | Clc1nccc(Nc2cc(C3CC3)[nH]n2)n1 [drawing 435] | – | – | – | – | – | 45 | > 100 | 29 | 31 | 63
16 | O=C(COc1ccccc1)NCC(c1cccs1)S(=O)(=O)c1ccc(Cl)cc1 (stereo not drawn) [drawing 427] | – | – | – | – | – | > 100 | 83 | 36 | 45 | > 100
17 | O=C(CCn1ccc2ccccc21)Nc1ccc(F)cc1 [drawing 475] | – | – | – | – | – | > 100 | – | – | > 100 | > 100
18 | Cc1nc2cc(C(=O)N[C@H](c3ccccc3)c3cccnc3)ccc2[nH]1 [drawing 398] | – | – | – | – | – | > 100 | > 100 | > 100 | > 100 | > 100
19 | COc1ccc(NC(=O)CCn2ccc3ccccc32)cc1 [drawing 474] | – | – | – | – | – | 30 | – | – | > 100 | > 100
20 | O=c1[nH][nH]c2nnc(-c3ccccc3)c(-c3ccccc3)c12 [drawing 394] | > 100 | > 100 | 28 | > 100 | > 100 | – | – | – | – | –
21 | Nc1nc(N)n(-c2ccccc2)/c(=N/c2ccccc2)n1 [drawing 395] | – | – | – | – | – | > 100 | > 100 | 33 | > 100 | > 100
22 | COc1ccc(Nc2nc(N(C)CCO)nc3c2cnn3-c2ccccc2)cc1 [drawing 387] | – | – | – | – | – | 7 | 6 | 11 | 8 | 9
23 | Cc1cccc(C(=O)n2nc(-c3ccco3)nc2NCc2ccccc2)c1 [drawing 431] | – | – | – | – | – | > 100 | > 100 | > 100 | > 100 | > 100
24 | O=C(c1ccccc1)n1nc(-c2ccco2)nc1NCc1ccccc1 | – | – | – | – | – | > 100 | > 100 | > 100 | > 100 | > 100

Row | Structure (SMILES) | EC50 [1] [µM] | EC50 [2] [µM] | EC50 [3] [µM] | EC50 [4] [µM] | EC50 [5] [µM] | EC50 ([1]; Homo sapiens, 24 h) [µM] | EC50 ([2]; Homo sapiens, LN-18, 24 h) [µM] | EC50 ([3]; 24 h) [µM] | EC50 ([4]; 24 h) [µM] | EC50 ([5]; 24 h) [µM]
25 | O=C(CCn1ccc2ccccc21)Nc1cnccn1 [drawing 477] | – | – | – | – | – | 64 | – | – | 33 | 92
26 | CC(C)(CO)NC(=O)c1cccc(Nc2nccc(Nc3ccc4ncsc4c3)n2)c1 [drawing 408] | – | – | – | – | – | 12 | 10 | 17 | 18 | 16
27 | Nc1cccc2cccc(N=C(CC(=O)O)C(=O)O)c12 [drawing 481] | – | – | – | – | – | 63 | – | – | > 100 | > 100
28 | Cc1ccc(NC(=O)CCn2ccc3ccccc32)cc1 [drawing 472] | – | – | – | – | – | > 100 | – | – | > 100 | > 100
29 | Cc1cc(-c2ccccc2)c2ccc(N)nc2n1 [drawing 480] | – | – | – | – | – | 58 | – | – | > 100 | 46
30 | NC(Cc1ccccc1)C(=O)n1ccc2cccnc21 (stereo not drawn) [drawing 479] | – | – | – | – | – | 45 | – | – | > 100 | > 100
31 | CC(C)c1nc(Nc2ccc(C(=O)NCc3ccccc3)cc2)nc(Nc2cccc(Cc3nc4ccccc4s3)c2)n1 [drawing 453] | – | – | – | – | – | > 100 | > 100 | > 100 | – | > 100
32 | CC(C)c1nc(Nc2ccc(C(=O)NCC3CCCCC3)cc2)nc(Nc2cccc(Cc3nc4ccccc4s3)c2)n1 [drawing 454] | – | – | – | – | – | > 100 | > 100 | > 100 | – | > 100
33 | O=C(c1cccc(Nc2ncc(Cl)c(Nc3ccc4ncsc4c3)n2)c1)N1CCCCC1 [drawing 465] | – | – | – | – | – | 7 | 14 | 12 | – | 15.3
34 | C1=C(c2cccc(Nc3nccc(Nc4ccc5ncsc5c4)n3)c2)CCNC1 [drawing 441] | – | – | – | – | – | 13 | 22 | 40 | – | 25
35 | CCOC(=O)c1ccc(NC(=O)CCn2ccc3ccccc32)cc1 [drawing 473] | – | – | – | – | – | > 100 | – | – | > 100 | > 100
36 | O=C(c1ccc(Nc2ncc(Cl)c(Nc3ccc4ncsc4c3)n2)cc1)N1CCCCC1 [drawing 443] | – | – | – | – | – | > 100 | > 100 | > 100 | – | > 100
37 | CCc1cc(Br)ccc1NC(=O)CCn1ccc2ccccc21 [drawing 478] | – | – | – | – | – | 43 | – | – | > 100 | > 100
38 | O=C(O)c1cccc(Nc2ncc(Cl)c(Nc3ccc4ncsc4c3)n2)c1 [drawing 462] | – | – | – | – | – | 15 | 40 | > 100 | – | 100
39 | CN1CCN(C(=O)c2cccc(Nc3ncc(Cl)c(Nc4ccc5ncsc5c4)n3)c2)CC1 [drawing 466] | – | – | – | – | – | 2 | 15 | 24 | – | 15
40 | COc1ccc(NC(=O)CC2=Nc3cccc4cccc(c34)NC2=O)cc1 [drawing 482] | – | – | – | – | – | 17 | – | – | > 100 | > 100
41 | NC1CCN(C(=O)c2ccc(Nc3ncc(Cl)c(Nc4ccc5ncsc5c4)n3)cc2)CC1 [drawing 464] | – | – | – | – | – | 30 | 40 | 40 | – | 60
42 | NC1CCN(C(=O)c2cccc(Nc3ncc(Cl)c(Nc4ccc5ncsc5c4)n3)c2)CC1 [drawing 469] | – | – | – | – | – | 20 | 40 | 35 | – | 25
43 | O=C(NCC1CCNCC1)c1cccc(Nc2ncc(Cl)c(Nc3ccc4ncsc4c3)n2)c1 [drawing 471] | – | – | – | – | – | 30 | 30 | 80 | – | 80
44 | O=C(CC1=Nc2cccc3cccc(c23)NC1=O)NCc1cccc(I)c1 [drawing 483] | – | – | – | – | – | 10 | – | – | 51 | > 100
45 | O=C(O)c1ccc(Nc2ncc(Cl)c(Nc3ccc4ncsc4c3)n2)cc1 [drawing 445] | – | – | – | – | – | 5 | 18 | > 100 | – | 100
46 | c1cc(Nc2nccc(Nc3ccc4ncsc4c3)n2)cc(C2CCNCC2)c1 [drawing 440] | – | – | – | – | – | 15 | 18 | 35 | – | 25
47 | NCC1CCN(C(=O)c2cccc(Nc3ncc(Cl)c(Nc4ccc5ncsc5c4)n3)c2)CC1 [drawing 470] | – | – | – | – | – | 3 | 19 | 18 | – | 20
